Measurements: patent US20240368163A1, “COMPOUNDS AND METHODS FOR MODULATING SPLICING” (REMIX THERAPEUTICS INC., priority 2021, published 2024)
Read-outs that look alike come from different tables or passages of the source.

What was measured:
[1] = system: HTT; assay: Splicing RT-qPCR assay, HTT mRNA canonical junction (CJ) and alternative junction (AJ); type: cell-based, human; settings: for AC50: increase in AJ mRNA
How it was run: (§1)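 A673 or K562 cells were treated 24 h at 37 °C with an 11-point 3-fold dilution series (top 10 uM final, DMSO ≤0.25%). Lysates underwent one-step RT-qPCR for canonical (CJ) and alternative (AJ) junctions; Ct normalized to GAPDH, GUSB or PPIA and DMSO control via 2^(−ΔΔCt), expressed as percentage response.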

[2] = Transwell assay for membrane efflux and permeability; type: in vitro ADME, Canine; settings: dog; MDCK-BCRP or MDCKII-MDR1 transwell, test compound 1 μM, 2 hours at 37° C.
Excerpt: Compounds described herein were screened for cell membrane permeability and efflux in a transwell assay using Madin-Darby Canine Kidney (MDCK) cells expressing Breast Cancer Resistance Protein (BCRP) or subclone MDCKII cells expressing Multidrug Resistance Protein 1 (MDR1).
MDCK-BCRP or MDCKII-MDR1 Cells: The Netherlands Cancer Institute, High Glucose Dulbecco's Modified Eagle's Medium (DMEM): Gibco/Thermo Fisher Scientific, Fetal Bovine Serum (FBS): Coming, Hank's Balanced Salt Solution (HBSS) and Trypsin/EDTA: Gibco/Thermo Fisher Scientific, HTS Transwell-96 Well Permeable Supports: Coming Corporation, Millicell Epithelial Volt-Ohm: Millipore, Cellometer® Vision: Nexcelom Bioscience LLC, Infinite 200 PRO microplate reader: Tecan, MTS2/4 orbital shaker: IKA Labortechnik, HEPES/Penicillin/Streptomycin: Solarbio.
MDCK-BCRP or MDCKII-MDR1 cells were seeded to each of the wells of the transwell plate at a density of 1.6×10^6 cells/mL and the plate was incubated for 4-8 days with medium changes every two days. To perform the drug transport assay, cell monolayers were first washed three times with pre-warmed HBSS and then incubated with gentle shaking (150 rpm) for 30 min at 37° C. Stock solutions of test compounds (e.g., exemplary compounds of Formulas (I), (II), and (III)) and control compounds (e.g., metoprolol, prazosin, and/or imatinib) were prepared in DMSO and adjusted to a working solution using HBSS. The final concentration of test compounds was 1 μM with DMSO; 0.5%. The plates were incubated at 37° C. for 2 hours.

[3] = system: Target C; assay: Splicing RT-qPCR panel, Target C canonical junction (CJ) mRNA; type: cell-based, human; settings: RT-qPCR panel, canonical junction mRNA, compound concentration having 50% response in CJ decrease, read-out: Target C IC50 (decrease in CJ mRNA levels)
How it was run: as §1

[4] = Homo sapiens, 24 h, A673 or K562 cells, 24 hours treatment, RT-qPCR
[5] = Homo sapiens, RT-qPCR panel, canonical junction mRNA, compound concentration having 50% response in CJ decrease, read-out: HTT IC50 (decrease in CJ mRNA levels)
[6] = Homo sapiens, 24 h, decrease in CJ mRNA, A673 or K562 cells, 24 hours treatment, RT-qPCR, read-out: HTT CJ IC50

Row | SMILES | AC50 [1, 4] [nM] | IC50 [1, 5] [nM] | Papp at 2 h, 1 μM [2] [×10⁻⁶ cm/s] | efflux ratio at 2 h, 1 μM [2] | IC50 ([3]; Homo sapiens) [nM] | IC50 [1, 6] [nM] | IC50 ([1]; RT-qPCR panel, canonical junction mRNA, compound concentration having 50% response in CJ decrease, read-out: HTT IC50 (decrease in CJ mRNA levels)) [nM] | IC50 [3] [nM]
1 | CN(c1ccc(-c2cc(F)c(-c3cn[nH]c3)c3cn[nH]c23)nn1)[C@@H]1C[C@H]2CC(F)(F)[C@@H](C1)N2 (stereo in doubt) [Compound 378, 6,6-difluoro-N-{6-[5-fluoro-4-(1H-pyrazol-4-yl)-1H-indazol-7-yl]pyridazin-3-yl}-N-methyl-8-azabicyclo[3.2.1]octan-3-amine] | < 100 | < 100 | 2 to 6 | > 5 | 100 to 1000 | – | – | –
2 | CN(c1ccc(-c2ccc(-c3cn[nH]c3)c3ncsc23)nn1)[C@@H]1C[C@H]2CC(F)(F)[C@@H](C1)N2 (stereo in doubt) [Compound 379, 6,6-difluoro-N-methyl-N-{6-[4-(1H-pyrazol-4-yl)-1,3-benzothiazol-7-yl]pyridazin-3-yl}-8-azabicyclo [3.2.1]octan-3-amine] | < 100 | < 100 | 2 to 6 | 1.5 to 5 | 100 to 1000 | – | – | –
3 | CN(c1ccc(-c2ccc(-c3cn[nH]c3)c3cn[nH]c23)nn1)[C@@H]1C[C@H]2CC[C@@H](C1)N2 [Compound 104] | 1000 to 10000 | 100 to 1000 | < 2 | > 5 | 100 to 1000 | 100 to 1000 | – | –
4 | CN(c1ccc(-c2ccc(-n3cccn3)c3cn[nH]c23)nn1)[C@@H]1C[C@H]2CC[C@@H](C1)N2 [Compound 105] | 100 to 1000 | < 100 | < 2 | > 5 | < 100 | – | – | –
5 | CN(c1ccc(-c2ccc(-c3cn[nH]c3)c3ncsc23)nn1)C1CC(C)(C)NC(C)(C)C1 [Compound 132] | 100 to 1000 | 100 to 1000 | < 2 | > 5 | 100 to 1000 | 100 to 1000 | – | –
6 | CN(c1ccc(-c2ccc(-c3cn[nH]c3)c3cn[nH]c23)nn1)C1CC(C)(C)NC(C)(C)C1 [Compound 137] | 100 to 1000 | 100 to 1000 | < 2 | > 5 | 1000 to 10000 | 100 to 1000 | – | –
7 | CN(c1ccc(-c2ccc(-c3ccc(=O)n(C)c3)c3scnc23)nn1)C1CC(C)(C)NC(C)(C)C1 [Compound 178] | > 10000 | > 10000 | < 2 | > 5 | > 10000 | > 10000 | – | –
8 | CC1(C)CC(Oc2ccc(-c3ccc(-c4cn[nH]c4)c4ncsc34)nn2)CCN1 (stereo not shown) [Compound 182] | 1000 to 10000 | 1000 to 10000 | < 2 | > 5 | 1000 to 10000 | 1000 to 10000 | – | –
9 | c1nc2c(-c3cn[nH]c3)ccc(-c3ccc(OC4CCNCC4)nn3)c2s1 [Compound 183] | 100 to 1000 | 100 to 1000 | < 2 | > 5 | 100 to 1000 | 100 to 1000 | – | –
10 | c1nc2c(-c3cn[nH]c3)ccc(-c3ccc(O[C@@H]4C[C@H]5CC[C@@H](C4)N5)nn3)c2s1 [Compound 184] | < 100 | 100 to 1000 | < 2 | > 5 | 100 to 1000 | 100 to 1000 | – | –
11 | CC1(C)CC(Nc2ccc(-c3ccc(-c4cn[nH]c4)c4ncsc34)nn2)CC(C)(C)N1 [Compound 186] | < 100 | < 100 | < 2 | > 5 | 100 to 1000 | – | – | –
12 | c1nc2c(-c3cn[nH]c3)ccc(-c3ccc(N[C@@H]4C[C@H]5CC[C@@H](C4)N5)nn3)c2s1 [Compound 202] | < 100 | < 100 | < 2 | > 5 | 100 to 1000 | – | – | –
13 | CCN(c1ccc(C2=CC=C(c3cn[nH]c3)C3N=CSC23)nn1)[C@@H]1C[C@H]2CC[C@@H](C1)N2 (stereo partly shown) [Compound 203] | 100 to 1000 | 100 to 1000 | < 2 | > 5 | 100 to 1000 | 100 to 1000 | – | –
14 | CN(c1ccc(-c2ccc(-c3cn[nH]c3)c3ncsc23)nn1)[C@H]1C[C@]2(C)CC[C@](C)(C1)N2 [Compound 204] | < 100 | < 100 | < 2 | > 5 | < 100 | – | – | –
15 | [2H]C([2H])([2H])N(c1ccc(-c2ccc(-c3cn[nH]c3)c3ncsc23)nn1)[C@@H]1C[C@H]2CC[C@@H](C1)N2 [Compound 210] | < 100 | < 100 | < 2 | > 5 | < 100 | – | – | –
16 | CN(c1ccc(-c2ccc(-c3cn[nH]c3)c3ncsc23)nn1)[C@@H]1C[C@H]2CC[C@@H](C1)N2 [Compound 213] | < 100 | < 100 | < 2 | > 5 | < 100 | – | – | –
17 | c1nc2c(-c3cn[nH]c3)ccc(-c3ccc(N[C@@H]4C[C@H]5CCC[C@@H](C4)N5)nn3)c2s1 [Compound 215] | < 100 | < 100 | < 2 | > 5 | < 100 | – | – | –
18 | Fc1cc(-c2ccc(O[C@@H]3C[C@H]4CC[C@@H](C3)N4)nn2)c2[nH]ncc2c1-c1cn[nH]c1 [Compound 216] | < 100 | < 100 | < 2 | > 5 | 100 to 1000 | – | – | –
19 | CN(c1ccc(-c2ccc(-c3cn[nH]c3)c3ncsc23)nn1)[C@@H]1C[C@H]2CCC[C@@H](C1)N2 [Compound 226] | < 100 | < 100 | < 2 | > 5 | < 100 | – | – | –
20 | [2H]C([2H])([2H])N(c1ccc(-c2ccc(-c3cn[nH]c3)c3ncsc23)nn1)[C@@H]1C[C@H]2CCC[C@@H](C1)N2 [Compound 227] | < 100 | < 100 | < 2 | > 5 | < 100 | – | – | –
21 | CCN(c1ccc(-c2ccc(-c3cn[nH]c3)c3ncsc23)nn1)[C@@H]1C[C@H]2CCC[C@@H](C1)N2 [Compound 228] | 100 to 1000 | < 100 | < 2 | > 5 | < 100 | – | – | –
22 | CN(c1ccc(-c2ccc(-c3cn[nH]c3)c3ncsc23)nn1)[C@H]1C[C@H]2COC[C@@H](C1)N2 [Compound 356, (endo)-N-methyl-N-{6-[4-(1H-pyrazol-4-yl)-1,3-benzothiazol-7-yl]pyridazin-3-yl}-3-oxa-9-azabicyclo[3.3.1]nonan-7-amine] | – | – | – | – | – | – | < 100 | < 100
